Tested on: patients with non-ST elevation ACS
Test: MERLIN-TIMI 36 trial: randomized, double-blind, placebo-controlled; effect of ranolazine stratified by baseline BNP
Format: in vivo, human
Details: ranolazine vs placebo
Source text: Ranolazine is believed to exert anti-ischemic effects through a reduction in myocardial cellular sodium and calcium overload with a consequent reduction in wall stress. B-type natriuretic peptide (BNP) is released in response to increased wall stress and is a potent indicator of risk in acute coronary syndromes (ACS). This study was a prospective evaluation of the interaction between BNP and the effect of ranolazine as part of a randomized, double-blind, placebo-controlled trial.
Plasma BNP were measured (ADVIA® BNP) at baseline (N=4543), 14 days (N=4079), and the Final Visit (N=3328) of the patients with non-ST elevation ACS randomized to ranolazine or placebo in the MERLIN-TIMI 36 trial. Patients were stratified using BNP>80 pg/mL based upon prior work with this assay. The primary endpoint of the trial was a composite of cardiovascular death, myocardial infarction, or recurrent ischemia (CVD/Ml/Rl).

**Q.** With COc1ccccc1OCC(O)CN1CCN(CC(=O)Nc2c(C)cccc2C)CC1 (racemic) [ranolazine, (±)-N-(2,6-dimethylphenyl)-4-[2-hydroxy-3-(2-methoxyphenoxy)propyl]-1-piperazine-acetamide] as the molecule, how does the “endpoint component of worsening angina, HR” value (BNP>80 pg/mL, CI 0.35-0.84, p=0.005) read?
**A.** Its value is 0.55.

**Q.** And the “endpoint component of worsening angina, HR” value (BNP≦80 pg/mL, 95% CI 0.63-1.28, p=0.55)?
**A.** The value was 0.90.

**Q.** And the “primary endpoint (composite of cardiovascular death, myocardial infarction, or recurrent ischemia), HR” value (patients with BNP>80 pg/mL, 95% CI 0.66-0.94, p=0.009)?
**A.** The value was 0.79.

**Q.** And the “primary endpoint (composite of cardiovascular death, myocardial infarction, or recurrent ischemia), effect” value (patients with a negative BNP result, p-interaction=0.052)?
**A.** The value was “lack of detectable effect”.

Reference: patent publication US20080233191A1, “USE OF RANOLAZINE FOR ELEVATED BRAIN-TYPE NATRIURETIC PEPTIDE” (priority 2007, published 2008)
